Patent US4046897A, “5-Mercaptopyridoxine alkanesulfonates and methods of use and pharmaceutical compositions” (Merck & Co., Inc., priority 1976, dated 1977)
Structures can show the parent of a compound that is named as a salt.

Test: Comparison of thermal stability of 5-MP salts (pure unformulated compound, colorimetric assay for intact thiol group)
Assay type: physicochemical
Details: for Thermal Stability % Remaining: pure unformulated salt
Method: Thus, in order to evaluate the relative stability of several salts of 5-mercaptopyridoxine, the test salts selected (i.e., the ethane-1,2-disulfonate, the phosphate, the sulfamate, the nitrate and the hydrochloride) were subjected to accelerated conditions of high temperature as the pure, unformulated, compound. The high temperature date obtained at 80° C. and at 105° C. is conventionally used in the pharmaceutical industry to screen compounds in as short a time as possible. Where a number of derivatives or salts are available, comparative data can be obtained and the test compounds can be ranked in an expected order of stability. The thermally stressed salts were assayed colorimetrically for intact thiol group. The ethanedisulfonate, hydrochloride and sulfamate salts also were subjected to NMR analysis to confirm the chemical analysis. The NMR data supports the chemical data.

Cc1ncc(CS)c(CO)c1O [Ethanedisulfonate, Bis(2-methyl-3-hydroxy-4-hydroxymethyl-5-mercaptomethyl-pyridinium) ethane-1,2-disulfonate]
Thermal Stability % Remaining (80° C, 1 week, 10080 min): 101.0% | Thermal Stability % Remaining (80° C, 3 weeks, 30240 min): 100.2% | Thermal Stability % Remaining (105° C, 3 days, 4320 min): 97.3% | Thermal Stability % Remaining (105° C, 7 days, 10080 min): 99.4% | relative thermal/chemical stability among 5-MP salts (in words) (at the temperatures employed (80° C and 105° C)): most stable salt

Cc1ncc(CS)c(CO)c1O [Hydrochloride, 5-mercaptopyridoxine hydrochloride]
Thermal Stability % Remaining (80° C, 1 week, 10080 min, hydrochloride): 70.5% | Thermal Stability % Remaining (80° C, 3 weeks, 30240 min, hydrochloride): 57.3% | Thermal Stability % Remaining (105° C, 3 days, hydrochloride, 4320 min): 57.3%

Cc1ncc(CS)c(CO)c1O [Nitrate]
Thermal Stability % Remaining (80° C, 1 week, 10080 min): 87.2%

Cc1ncc(CS)c(CO)c1O [Phosphate]
Thermal Stability % Remaining (105° C, 3 days, 4320 min): 93.0% | Thermal Stability % Remaining (105° C, 7 days, 10080 min): 58.0%

Cc1ncc(CS)c(CO)c1O [Sulfamate]
Thermal Stability % Remaining (80° C, 1 week, 10080 min): 94.0% | Thermal Stability % Remaining (80° C, 3 weeks, 30240 min): 75.7% | Thermal Stability % Remaining (105° C, 3 days, 4320 min): 13.0% | Thermal Stability % Remaining (105° C, 7 days, 10080 min): 8.8%
